Laboratory results as given in paper PMC7582822, “Constituents of Coreopsis lanceolata Flower and Their Dipeptidyl Peptidase IV Inhibitory Effects” (Molecules, 2020).
Like-named read-outs stand apart in the source and are kept apart here.

Target: T1, human recombinant DPP-IV enzyme (Homo sapiens, UniProt P27487)
T1 construct: purchased Cayman Chemical
Assay: DPP-IV inhibitor screening assay (Cayman kit, fluorogenic H-Gly-Pro-AMC substrate)
Format: biochemical
Conditions: for DPP-IV inhibitory effect (in words): isolates tested up to 100 μM
Experimental: Briefly, a DDP assay buffer consisting of 20 mM Tris-HCL (pH 8.0), […] and 1 mM EDTA was used for the assay solution. Each of the compounds were initially dissolved in DMSO at a concentration of 1 mM. Subsequently, the final concentration of compounds was diluted to 0.1, 1, 10, 25, 50 and 100 μM, respectively. The human recombinant DPP-IV enzyme and the substrate 5 mM H-Gly-Pro conjugated to aminomethylcoumarin (AMC) were put in the same buffer. Diluted assay buffer (30 μL) and diluted enzyme solution (10 μL) were added to a 96-well plate containing 10 μL of solvent (blank) or 10 μL of solvent-dissolved test compounds. The reaction by adding 50 μL of the diluted solution of the fluorogenic substrate was initiated and cleavage of the peptide bond by DPP released the free AMC group. The fluorescence was measured as an excitation wavelength of 350 nm and an emission wavelength of 450 nm using a plate reader (TECAN, Männedorf, Switzerland). The percentage inhibition was expressed as [(DPP-IV level of vehicle-treated control−DPP-IV level of test samples)/DPP-IV level of vehicle-treated control] × 100. Subsequently, the 50% inhibitory concentration (IC50) was determined using GraphPad Prism software (GaraphPad Software, La Jolla, CA, USA) via a dose–response analysis.

[1] = in vitro, compounds at 0.1-100 μM, values in text, read-out: IC50, inhibition of DPP-IV activity

T1 sequence (P27487 whole entry): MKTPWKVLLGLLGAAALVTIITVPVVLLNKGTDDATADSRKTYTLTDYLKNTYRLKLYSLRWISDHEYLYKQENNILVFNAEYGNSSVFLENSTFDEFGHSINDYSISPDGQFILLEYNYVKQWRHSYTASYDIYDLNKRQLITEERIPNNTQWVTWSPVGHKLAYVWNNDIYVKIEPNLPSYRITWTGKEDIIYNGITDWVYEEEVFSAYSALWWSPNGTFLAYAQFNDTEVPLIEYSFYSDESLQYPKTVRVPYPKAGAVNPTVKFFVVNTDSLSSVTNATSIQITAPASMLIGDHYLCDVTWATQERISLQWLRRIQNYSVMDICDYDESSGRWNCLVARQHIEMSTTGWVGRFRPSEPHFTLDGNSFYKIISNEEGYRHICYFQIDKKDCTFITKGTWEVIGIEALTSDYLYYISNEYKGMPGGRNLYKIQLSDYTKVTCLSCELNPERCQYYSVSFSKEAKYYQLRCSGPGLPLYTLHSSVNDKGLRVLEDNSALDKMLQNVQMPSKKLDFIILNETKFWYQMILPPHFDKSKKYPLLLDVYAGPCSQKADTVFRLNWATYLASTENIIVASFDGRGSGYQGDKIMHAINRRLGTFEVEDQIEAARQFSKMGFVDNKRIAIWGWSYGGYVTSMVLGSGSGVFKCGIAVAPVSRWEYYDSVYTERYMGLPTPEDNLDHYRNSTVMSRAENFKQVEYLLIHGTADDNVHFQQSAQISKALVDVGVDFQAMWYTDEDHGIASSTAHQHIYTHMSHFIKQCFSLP

Row | SMILES | IC50 [1] | DPP-IV inhibitory effect (in words) | IC50 (dose-response curves, mean ± SD of three independent experiments, read-out: IC50, effect on DPP-IV activity (Figure 3))
1 | COc1c(O)ccc2c1O/C(=C\c1ccc(O)c(O)c1)C2=O [Compound 6, leptosidin] | 13.3 µM | moderate | 
2 | COc1ccc(/C=C/C(=O)c2ccc(O)c(OC)c2O)cc1O [Compound 4] | 21.6 µM |  | 
3 | O=c1c(O)c(-c2ccc(O)c(O)c2)oc2cc(O)cc(O)c12 [Compound 9, quercetin] |  | did not show their activities | 
4 | COc1c(O)ccc2c1O[C@@H](c1ccc(O)c(O)c1)CC2=O [Compound 7, (2R)-8-methoxybutin] | 64.9 µM | moderate | 
5 | CC#CC#CC#C/C=C/[C@@H](CCCCO)O[C@@H]1O[C@H](CO)[C@@H](O)[C@H](O)[C@H]1O [Compound 1, (5R)-6E-tetradecene-8,10,12-triyne-1-ol-5-O-β-glucoside] |  | did not show their activities | 
6 | C=C[C@H](O)[C@H](/C=C/C#CC#CC#CC)O[C@@H]1O[C@H](CO)[C@@H](O)[C@H](O)[C@H]1O [Compound 11, (3S,4S)-5E-trideca-1,5-dien-7,9,11-triyne-3,4-diol-4-O-β-glucopyranoside] |  | did not show their activities | 
7 | COc1c(O)ccc(C(=O)/C=C/c2ccc(O)c(O)c2)c1O [Compound 2, lanceoletin] | 9.6 µM |  | 9.55 µM
8 | COc1ccc(C=CC(=O)c2ccc(OC3OC(CO)C(O)C(O)C3O)c(OC)c2O)cc1O (stereo not shown) [Compound 3, 3,2′-dihydroxy-4-3′-dimethoxychalcone-4′-glucoside] | 14.3 µM |  | 
9 | C/C=C/C#CC#CCCCO[C@@H]1O[C@H](CO)[C@@H](O)[C@H](O)[C@H]1O [Compound 10, bidenoside C] |  | did not show their activities | 
10 | O=c1cc(-c2ccc(O)c(O)c2)oc2cc(O)cc(O)c12 [Compound 8, luteolin] |  | did not show their activities | 
